Data on eight molecules can be found in patent US11608323B2 (SYNGENTA LIMITED, priority 2013, dated 2023).

Common to all, as to assay type: in vivo
Test [1] concerns ALOMY. The experiment in a line: Post-emergence herbicidal activity, glasshouse pot test. To be noted: Alopecurus myosuroides; application post-emergence; rate 1000 g/Ha; evaluated after 13 days. Summed up: (§1)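 Foliar application to 8-day-old plants using a 0.5% Tween 20 acetone/water carrier; phytotoxicity is scored visually from 0 to 5 after 13 days of growth at 24/16 °C day/night.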

The test system of test [2] is SETFA. The test is described as above. Conditions: Setaria faberi; application post-emergence; rate 1000 g/Ha; evaluated after 13 days. Summed up:
as §1

The test system of test [3] is ECHCG. The description is as above. Conditions: Echinochloa crus-galli; application post-emergence; rate 1000 g/Ha; evaluated after 13 days. The procedure, abridged:
as §1

Test [4] deals with AMARE. The description is as above. Conditions: Amaranthus retroflexus; application post-emergence; rate 1000 g/Ha; evaluated after 13 days. The procedure, abridged: as §1
For test [5], the system named is ZEAMX. The test is described as above. To be noted: Zea mays; application post-emergence; rate 1000 g/Ha; evaluated after 13 days. Summed up: as §1
Test [6] deals with ABUTH. The description is as above. Conditions: Abutilon theophrasti; application post-emergence; rate 1000 g/Ha; evaluated after 13 days. The procedure, abridged:
as §1

In test [7] the test system is ALOMY. The experiment in a line: Pre-emergence herbicidal activity, glasshouse pot test. Conditions: rate 1000 g/Ha, evaluated after 13 days, scale 0-5. Summed up:
(§2)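 Visual 0–5 injury score (5 = total damage) taken 13 days after spraying. Treatment applied one day after sowing, before emergence; glasshouse at 24/16 °C day/night, 14 h photoperiod, 65% humidity.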

The test system of test [8] is SETFA. Described as above. To be noted: rate 1000 g/Ha, evaluated after 13 days, scale 0-5. The procedure, abridged: as §2
Test [9] relates to ECHCG. The description is as above. Conditions: rate 1000 g/Ha, evaluated after 13 days, scale 0-5. The procedure, abridged: as §2
Test [10] has as its system AMARE. The description is as above. To be noted: rate 1000 g/Ha, evaluated after 13 days, scale 0-5. The procedure, abridged:
as §2

The subject of test [11] is ZEAMX. Described as above. To be noted: rate 1000 g/Ha, evaluated after 13 days, scale 0-5. The procedure, abridged: as §2
The test system of test [12] is ABUTH. Described as above. Conditions: rate 1000 g/Ha, evaluated after 13 days, scale 0-5. Summed up:
as §2

Structures are written as SMILES.

In the case of `CC1C(O)N(c2cc(C(F)(F)F)ccn2)C(=O)N1C` (stereo not drawn) [Compound A19, 4-hydroxy-1,5-dimethyl-3-[4-(trifluoromethyl)-2-pyridyl]imidazolidin-2-one], the “Post-emergence herbicidal activity ALOMY (damage score 0-5)” value (from here on “Post-emergence herbicidal activity ALOMY”) in test [1] is 5. Besides, the “Post-emergence herbicidal activity SETFA (damage score 0-5)” value (shortened to “Post-emergence herbicidal activity SETFA”) in test [2] amounted to 5. Moreover, the “Post-emergence herbicidal activity ECHCG (damage score 0-5)” value (“Post-emergence herbicidal activity ECHCG” below) in test [3] is 5. Moreover, in [4], the “Post-emergence herbicidal activity AMARE (damage score 0-5)” value (from here on “Post-emergence herbicidal activity AMARE”) worked out at 5. In test [5], the “Post-emergence herbicidal activity ZEAMX (damage score 0-5)” value (shortened to “Post-emergence herbicidal activity ZEAMX”) was 4. Also, the “Post-emergence herbicidal activity ABUTH (damage score 0-5)” value (“Post-emergence herbicidal activity ABUTH” below) in [6] is listed as 5. Besides, the “ALOMY damage score, application pre-emergence” value (from here on “ALOMY damage score”) in test [7] is 4. Moreover, the “SETFA damage score, application pre-emergence” value (“SETFA damage score” for short) in test [8] came out at 5. The “ECHCG damage score, application pre-emergence” value (“ECHCG damage score” for short) in test [9] turned out to be 5. Further, the “AMARE damage score, application pre-emergence” value (“AMARE damage score” for short) in test [10] was 5. Besides, in test [11], the “ZEAMX damage score, application pre-emergence” value (“ZEAMX damage score” for short) is reported as 3. In test [12], the “ABUTH damage score, application pre-emergence” value (“ABUTH damage score” for short) amounted to 5.
Take `COc1cncc(-c2cnc(N3C(=O)N(C)C(C)C3O)cc2C(F)(F)F)c1` (stereo not drawn) [Compound A20]: the “Post-emergence herbicidal activity ALOMY” value in test [1] turned out to be 5. The “Post-emergence herbicidal activity SETFA” value in [2] was determined as 5. In addition, the “Post-emergence herbicidal activity ECHCG” value in test [3] was 5. Besides, the “Post-emergence herbicidal activity AMARE” value in [4] was 5. In test [5], the “Post-emergence herbicidal activity ZEAMX” value came out at 4. In addition, the “Post-emergence herbicidal activity ABUTH” value in test [6] was determined as 5. Further, the “ALOMY damage score” value in test [7] is reported as 4. Moreover, the “SETFA damage score” value in [8] is given as 5. Moreover, the “ECHCG damage score” value in test [9] is recorded as 4. Besides, the “AMARE damage score” value in test [10] was 5. The “ZEAMX damage score” value in [11] stood at 5. In addition, the “ABUTH damage score” value in [12] stood at 5.
Consider `COc1ccc(-c2cnc(N3C(=O)N(C)C(C)C3O)cc2C(F)(F)F)cn1` (stereo not drawn) [Compound A21], for which the “Post-emergence herbicidal activity ALOMY” value in test [1] is recorded as 5. The “Post-emergence herbicidal activity SETFA” value in test [2] worked out at 5. Also, the “Post-emergence herbicidal activity ECHCG” value in [3] was 5. Moreover, in test [4], the “Post-emergence herbicidal activity AMARE” value was 5. In addition, the “Post-emergence herbicidal activity ZEAMX” value in test [5] is given as 3. In test [6], the “Post-emergence herbicidal activity ABUTH” value is on record as 5. Also, in [7], the “ALOMY damage score” value turned out to be 3. Also, in test [8], the “SETFA damage score” value amounted to 5. Besides, in test [9], the “ECHCG damage score” value was 5. The “AMARE damage score” value in [10] came to 5. Moreover, the “ZEAMX damage score” value in test [11] is 2. Further, in [12], the “ABUTH damage score” value is given as 5.
On to `COc1ncc(-c2cnc(N3C(=O)N(C)C(C)C3O)cc2C(F)(F)F)cn1` (stereo not drawn) [Compound A22], for which the “Post-emergence herbicidal activity ALOMY” value in test [1] is given as 5. Besides, the “Post-emergence herbicidal activity SETFA” value in [2] was 5. The “Post-emergence herbicidal activity ECHCG” value in test [3] is 5. Besides, the “Post-emergence herbicidal activity AMARE” value in test [4] turned out to be 5. Moreover, the “Post-emergence herbicidal activity ZEAMX” value in test [5] is 5. Further, in test [6], the “Post-emergence herbicidal activity ABUTH” value was 5. For the same molecule, in [7], the “ALOMY damage score” value amounted to 4. Further, in [8], the “SETFA damage score” value was determined as 5. In test [9], the “ECHCG damage score” value was found to be 5. For the same molecule, the “AMARE damage score” value in test [10] amounted to 5. Moreover, the “ZEAMX damage score” value in test [11] was 3. The “ABUTH damage score” value in test [12] is on record as 5.
In the case of `COc1ccncc1-c1cnc(N2C(=O)N(C)C(C)C2O)cc1C(F)(F)F` (stereo not drawn) [Compound A23], the “Post-emergence herbicidal activity ALOMY” value in test [1] came out at 4. The “Post-emergence herbicidal activity SETFA” value in test [2] is reported as 4. The “Post-emergence herbicidal activity ECHCG” value in [3] worked out at 2. In [4], the “Post-emergence herbicidal activity AMARE” value came out at 5. Moreover, the “Post-emergence herbicidal activity ZEAMX” value in test [5] was 2. In test [6], the “Post-emergence herbicidal activity ABUTH” value is 5. Further, the “ALOMY damage score” value in test [7] amounted to 3. In addition, in test [8], the “SETFA damage score” value worked out at 3. In addition, the “ECHCG damage score” value in test [9] was 2. Moreover, the “AMARE damage score” value in test [10] came to 5. In addition, in test [11], the “ZEAMX damage score” value was found to be 1. The “ABUTH damage score” value in test [12] is 2.
For `Cc1ccc(-c2cnc(N3C(=O)N(C)C(C)C3O)cc2C(F)(F)F)cn1` (stereo not drawn) [Compound A24], the “Post-emergence herbicidal activity ALOMY” value in test [1] is reported as 5. The “Post-emergence herbicidal activity SETFA” value in [2] was found to be 5. Besides, the “Post-emergence herbicidal activity ECHCG” value in [3] came out at 5. For the same molecule, the “Post-emergence herbicidal activity AMARE” value in test [4] turned out to be 5. In addition, the “Post-emergence herbicidal activity ZEAMX” value in [5] came out at 4. Also, in [6], the “Post-emergence herbicidal activity ABUTH” value is given as 5. The “ALOMY damage score” value in test [7] is on record as 4. The “SETFA damage score” value in [8] is given as 4. Besides, the “ECHCG damage score” value in test [9] is 5. In [10], the “AMARE damage score” value turned out to be 5. For the same molecule, the “ZEAMX damage score” value in [11] amounted to 3. The “ABUTH damage score” value in test [12] was 5.
With `CC1C(O)N(c2cc(C(F)(F)F)c(I)cn2)C(=O)N1C` (stereo not drawn) [Compound A25, 5-hydroxy-1-[5-iodo-4-(trifluoromethyl)-2-pyridyl]-3,4-dimethyl-imidazolidin-2-one], in test [1], the “Post-emergence herbicidal activity ALOMY” value is on record as 5. Moreover, the “Post-emergence herbicidal activity SETFA” value in [2] worked out at 5. Further, the “Post-emergence herbicidal activity ECHCG” value in test [3] is 5. Also, the “Post-emergence herbicidal activity AMARE” value in test [4] is 5. Also, the “Post-emergence herbicidal activity ZEAMX” value in [5] was 5. Besides, the “Post-emergence herbicidal activity ABUTH” value in test [6] is given as 5. The “ALOMY damage score” value in test [7] came to 4. In addition, in [8], the “SETFA damage score” value came to 4. Further, the “ECHCG damage score” value in test [9] amounted to 5. In [10], the “AMARE damage score” value turned out to be 5. The “ZEAMX damage score” value in test [11] is listed as 2. Further, the “ABUTH damage score” value in test [12] was 5.
Take `CCOC1C(O)N(c2cc(C(F)(F)F)ccn2)C(=O)N1CC` (stereo not drawn) [Compound A29]: the “Post-emergence herbicidal activity ALOMY” value in test [1] is 4. Moreover, the “Post-emergence herbicidal activity SETFA” value in test [2] is 3. The “Post-emergence herbicidal activity ECHCG” value in test [3] came to 4. In test [4], the “Post-emergence herbicidal activity AMARE” value was 5. The “Post-emergence herbicidal activity ZEAMX” value in test [5] stood at 2. Also, in test [6], the “Post-emergence herbicidal activity ABUTH” value stood at 5. Besides, the “ALOMY damage score” value in test [7] is given as 1. Also, the “SETFA damage score” value in test [8] turned out to be 2. Besides, the “ECHCG damage score” value in test [9] is reported as 1. The “AMARE damage score” value in [10] is listed as 5. Also, the “ZEAMX damage score” value in [11] worked out at 1. The “ABUTH damage score” value in test [12] amounted to 5.
